Source: patent US20230322715A1, “BROAD SPECTRUM ANTI-CANCER COMPOUNDS” (The Regents of the University of California, priority 2019, published 2023)
Where “and” joins values, the source holds several entries; their conditions need not be identical. Equal entries are not always repeated. Where two headings read alike, the source gives them in different places.

Assays:
[1] = target: FTO (Homo sapiens (Human), UniProt Q9C0B1); assay: Fluorescence enzymatic inhibition assay (m6A7-Broccoli RNA / DFHBI-1T) against FTO; format: biochemical; settings: for precipitation in assay buffer: dose response could not be determined; for selectivity between FTO and ALKBH5: comparison of enzymatic IC50 values
Protocol: In order to determine their efficacy as FTO inhibitors, the compounds were screened by a fluorescence enzymatic inhibition assay developed previously by the Jaffrey lab.^44 Briefly, a nonfluorescent methylated RNA substrate termed “m6A7-Broccoli” is incubated with FTO in the presence of 2-oxoglutarate (300 μM), (NH4)2Fe(SO4)2·6H2O (300 μM), and L-ascorbate (2 mM) for 2 hours at room temperature in reaction buffer (50 mM NaHEPES, pH 6).
(§1) Inhibitors were added in concentrations ranging from 0.008-40 μM; all inhibitors were dissolved in DMSO and added to a final concentration of 0.2% DMSO. […] After incubation at room temperature for 2 hours, the plates were left at 4° C. overnight (16 hours) to allow DFHBI-1T to bind to A7-Broccoli RNA. […] Sigmoidal dose-response curves were fitted in GraphPad Prism 6. All assays were performed in triplicate, with additional repetitions added as necessary.

[2] = target: ALKBH5 (Homo sapiens (Human), UniProt Q6P6C2); assay: Fluorescence enzymatic inhibition assay (m6A7-Broccoli RNA / DFHBI-1T) against ALKBH5; format: biochemical
Protocol: as §1

[3] = elogD / log D determination
[4] = target: YTHDF1 (Homo sapiens (Human), UniProt Q9BYJ9); assay: In vitro FRET assay for binding affinities of YTH inhibitors, YTHDF1
Description: (§2) FIG. 8-2 depicts possible design and synthesis of compound libraries. In Vitro FRET assay development could yield a high throughput FRET assay to determine binding affinities for potential YHT inhibitors against YTHDF1, YTHDF2, YTHDF3, or other similar proteins.

[5] = target: YTHDF2 (Homo sapiens (Human), UniProt Q9Y5A9); assay: In vitro FRET assay for binding affinities of YTH inhibitors, YTHDF2
Description: as §2

[6] = m6A7-Broccoli fluorescence assay, 0.250 μM FTO, inhibitor up to 40 μM, triplicate, read-out: Enzymatic IC50 FTO
[7] = m6A7-Broccoli fluorescence assay, 0.250 μM ALKBH5, read-out: Enzymatic IC50 ALKBH5
[8] = Table 800 compounds, read-out: FTO IC50
[9] = Table 800 compounds, read-out: ALKBH5 IC50
[10] = Ki values for YTH library against YTHDF2, read-out: Ki

Chain of YTHDF1 (Q9BYJ9 whole entry): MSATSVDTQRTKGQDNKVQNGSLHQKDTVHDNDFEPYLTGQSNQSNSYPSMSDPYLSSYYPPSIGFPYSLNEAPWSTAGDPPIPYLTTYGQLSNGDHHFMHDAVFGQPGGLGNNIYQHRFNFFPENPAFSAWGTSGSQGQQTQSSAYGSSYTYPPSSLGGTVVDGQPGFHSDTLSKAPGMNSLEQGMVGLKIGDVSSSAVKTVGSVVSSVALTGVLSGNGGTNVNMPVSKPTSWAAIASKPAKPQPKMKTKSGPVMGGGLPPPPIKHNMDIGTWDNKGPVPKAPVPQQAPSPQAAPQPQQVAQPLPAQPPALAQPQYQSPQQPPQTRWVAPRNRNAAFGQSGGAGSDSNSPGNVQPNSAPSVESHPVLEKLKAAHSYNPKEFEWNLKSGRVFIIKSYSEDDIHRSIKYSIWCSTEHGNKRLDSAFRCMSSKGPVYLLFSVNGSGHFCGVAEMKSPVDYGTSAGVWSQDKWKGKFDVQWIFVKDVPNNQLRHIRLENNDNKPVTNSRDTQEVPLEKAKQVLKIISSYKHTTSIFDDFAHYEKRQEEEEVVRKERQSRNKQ
Chain of FTO (Q9C0B1 whole entry): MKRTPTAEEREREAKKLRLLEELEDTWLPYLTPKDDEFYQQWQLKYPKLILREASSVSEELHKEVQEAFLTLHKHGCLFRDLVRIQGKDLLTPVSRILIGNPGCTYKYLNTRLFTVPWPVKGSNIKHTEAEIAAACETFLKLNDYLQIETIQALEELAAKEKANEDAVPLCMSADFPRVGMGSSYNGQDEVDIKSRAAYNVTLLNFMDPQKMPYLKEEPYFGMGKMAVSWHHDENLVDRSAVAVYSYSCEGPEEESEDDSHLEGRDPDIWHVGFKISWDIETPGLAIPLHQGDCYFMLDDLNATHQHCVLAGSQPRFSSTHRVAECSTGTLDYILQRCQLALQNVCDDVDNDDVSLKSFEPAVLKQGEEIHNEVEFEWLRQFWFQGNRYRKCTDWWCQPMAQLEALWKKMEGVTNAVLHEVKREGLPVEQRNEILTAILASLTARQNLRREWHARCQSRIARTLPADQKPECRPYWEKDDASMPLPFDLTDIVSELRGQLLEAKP
Chain of ALKBH5 (Q6P6C2 whole entry): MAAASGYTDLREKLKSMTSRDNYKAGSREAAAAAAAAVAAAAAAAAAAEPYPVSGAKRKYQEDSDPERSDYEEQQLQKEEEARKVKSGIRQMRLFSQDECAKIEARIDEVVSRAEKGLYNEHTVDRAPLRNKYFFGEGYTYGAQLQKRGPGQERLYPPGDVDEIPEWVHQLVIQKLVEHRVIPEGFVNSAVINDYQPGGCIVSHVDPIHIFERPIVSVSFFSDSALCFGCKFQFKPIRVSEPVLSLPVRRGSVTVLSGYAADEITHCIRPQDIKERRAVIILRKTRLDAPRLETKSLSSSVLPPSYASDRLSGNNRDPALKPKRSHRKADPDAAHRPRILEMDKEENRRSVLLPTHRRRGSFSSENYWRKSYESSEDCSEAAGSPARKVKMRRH
Chain of YTHDF2 (Q9Y5A9 whole entry): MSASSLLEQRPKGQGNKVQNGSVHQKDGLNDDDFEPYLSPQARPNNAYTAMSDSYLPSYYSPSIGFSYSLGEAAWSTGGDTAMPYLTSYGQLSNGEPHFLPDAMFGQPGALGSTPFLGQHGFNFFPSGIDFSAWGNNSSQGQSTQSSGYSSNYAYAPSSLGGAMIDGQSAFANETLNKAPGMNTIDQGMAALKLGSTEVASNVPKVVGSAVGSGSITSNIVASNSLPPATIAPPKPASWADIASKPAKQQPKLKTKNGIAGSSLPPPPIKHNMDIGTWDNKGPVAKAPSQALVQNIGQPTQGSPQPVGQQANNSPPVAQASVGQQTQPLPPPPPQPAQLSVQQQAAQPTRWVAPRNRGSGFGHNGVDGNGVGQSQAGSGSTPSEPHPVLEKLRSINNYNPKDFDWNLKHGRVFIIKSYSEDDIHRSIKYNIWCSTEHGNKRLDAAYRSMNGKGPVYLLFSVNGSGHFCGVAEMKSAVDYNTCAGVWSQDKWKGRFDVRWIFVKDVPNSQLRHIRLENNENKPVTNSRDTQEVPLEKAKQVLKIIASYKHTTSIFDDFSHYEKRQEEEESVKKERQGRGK

SMILES	melting point [°C]	Ki ([4]; read-out: Ki (pM) YTHDF1) [pM]	Ki ([4]; read-out: Ki YTHDF1) [pM]	Ki [5, 10] [pM]	Ki ([5]; read-out: Ki (pM) YTHDF2) [pM]	Ki ([5]; read-out: Ki YTHDF2) [pM]	also measured
Oc1ccc2cc(-c3cncnc3)ccc2c1 [FTO-1, 6-(pyrimidin-5-yl)naphthalen-2-ol]	230						IC50 [1, 6]: 41.7 µM; inhibition of ALKBH5 at the highest concentration measured [2]: no measurable inhibition; IC50 [2, 7]: > 40 µM
COc1ncc(-c2cccc(OCc3ccccc3)c2)cn1 [FTO-3, 5-(3-(benzyloxy)phenyl)-2-methoxypyrimidine]	230						precipitation in assay buffer [1]: significant precipitation
COc1ccc2cc(-c3cncnc3)ccc2c1 [FTO-5, 5-(6-methoxynaphthalen-2-yl)pyrimidine]	230						selectivity between FTO and ALKBH5 [1]: five-fold or higher; IC50 [1, 6]: 13.4 ± 2.3 µM; inhibition of ALKBH5 at the highest concentration measured [2]: no measurable inhibition; IC50 [2, 7]: > 40 µM
COc1ncc(-c2ccc(CO)c(OC)c2)cn1 [FTO-6, (2-methoxy-4-(2-methoxypyrimidin-5-yl)phenyl)methanol]	230						selectivity between FTO and ALKBH5 [1]: five-fold or higher; IC50 [1, 6]: 13.8 ± 2.4 µM
Cc1ccc2cc(-c3cncnc3)ccc2n1 [FTO-7, 2-methyl-6-(pyrimidin-5-yl)quinoline]	230						IC50 [1, 6]: 29.1 µM; inhibition of ALKBH5 at the highest concentration measured [2]: no measurable inhibition; IC50 [2, 7]: > 40 µM
COc1ccc2cc(-c3cnc(OC)nc3)ccc2c1 [FTO-8, 2-methoxy-5-(6-methoxynaphthalen-2-yl)pyrimidine]	230						selectivity between FTO and ALKBH5 [1]: equivalent inhibitors towards both demethylases; IC50 [2, 7]: 16.4 µM
Nc1ncc(-c2cccc(Nc3ccccc3)c2)cn1 [FTO-9, 5-(3-(phenylamino)phenyl)pyrimidin-2-amine]	230						selectivity between FTO and ALKBH5 [1]: distinct preference towards ALKBH5 over FTO; IC50 [1, 6]: > 40 µM and 43.8 µM; IC50 [2, 7]: 5.2 µM
Cc1ccc2cc(-c3cnc(N)nc3)ccc2n1 [FTO-14, 5-(2-methylquinolin-6-yl)pyrimidin-2-amine]	230						IC50 [1, 6]: 59.6 µM
COCCNc1ncc(-c2ccc3cc(OC)ccc3c2)cn1 [FTO-15, N-(2-methoxyethyl)-5-(6-methoxynaphthalen-2-yl)pyrimidin-2-amine]	230						precipitation in assay buffer [1]: significant precipitation
COCCNc1ncc(-c2ccc3cc(O)ccc3c2)cn1 [FTO-16, 6-(2-((2-methoxyethyl)amino)pyrimidin-5-yl)naphthalen-2-ol]	230						IC50 [1, 6]: 46.5 µM
COCCNc1ncc(-c2ccc3ccc(O)cc3c2)cn1 [FTO-17, 7-(2-((2-methoxyethyl)amino)pyrimidin-5-yl)naphthalen-2-ol]	230						IC50 [1, 6]: 51.9 µM
COCCNc1ncc(-c2ccc(OCc3ccccc3)cc2)cn1 [FTO-18, 5-(4-(benzyloxy)phenyl)-N-(2-methoxyethyl)pyrimidin-2-amine]	230						inhibition of ALKBH5 at the highest concentration measured [2]: no measurable inhibition; IC50 [2, 7]: > 40 µM
O=S(=O)(Nc1nccnc1O)c1ccc(OC(F)(F)F)cc1 [TR-ALKBH5-31]							IC50 [1, 8]: > 40 µM; IC50 [2, 9]: 13.7 µM; elogD ([3]; Table 800 compounds): 2.33
O=S(=O)(NCc1ccccn1)c1ccc(OC(F)(F)F)cc1 [TR-ALKBH5-32]							IC50 [1, 8]: > 40 µM; IC50 [2, 9]: 2.2 µM; elogD ([3]; Table 800 compounds): 2.25
Cc1ccc(NS(=O)(=O)c2ccc(OC(F)(F)F)cc2)cc1C [TR-ALKBH5-34]							IC50 [1, 8]: > 40 µM; IC50 [2, 9]: 23.3 µM; elogD ([3]; Table 800 compounds): 0.60
O=S(=O)(Nc1ccccc1N1CCCCC1)c1ccc(OC(F)(F)F)cc1 [TR-ALKBH5-36]							IC50 [1, 8]: 23.2 µM; IC50 [2, 9]: 0.4 µM; elogD ([3]; Table 800 compounds): 1.13
O=S(=O)(Nc1ccc(F)c(Cl)c1)c1ccc(OC(F)(F)F)cc1 [TR-ALKBH5-38]							IC50 [1, 8]: 27.6 µM; IC50 [2, 9]: 1.9 µM; elogD ([3]; Table 800 compounds): 2.58
O=S(=O)(Nc1cccc(O)c1)c1ccc(OC(F)(F)F)cc1 [TR-ALKBH5-39]							IC50 [1, 8]: > 40 µM; IC50 [2, 9]: 3.1 µM; elogD ([3]; Table 800 compounds): 1.60
CN(CCCN1c2ccccc2CCc2ccccc21)S(=O)(=O)c1ccc(OC(F)(F)F)cc1 [TR-ALKBH5-40]							IC50 [1, 8]: 59.4 µM; IC50 [2, 9]: 2.3 µM; elogD ([3]; Table 800 compounds): 2.05

SMILES	melting point [°C]	Ki ([4]; read-out: Ki (pM) YTHDF1) [pM]	Ki ([4]; read-out: Ki YTHDF1) [pM]	Ki [5, 10] [pM]	Ki ([5]; read-out: Ki (pM) YTHDF2) [pM]	Ki ([5]; read-out: Ki YTHDF2) [pM]	also measured
C[C@@H](NS(=O)(=O)c1ccc(OC(F)(F)F)cc1)c1cccnc1 [TR-ALKBH5-42]							IC50 [1, 8]: 285 µM; IC50 [2, 9]: 0.25 µM; elogD ([3]; Table 800 compounds): 0.83
FC(F)(F)c1cccc(CNCC2(N3CCCC3)COC2)c1 [TR-FTO-02]							IC50 [1, 6]: 4.3 µM; IC50 [2, 7]: 19.5 µM; elogD [3]: 1.02
FC1CCN(C2(CNCc3ccc(-c4ccccc4)o3)COC2)C1 (stereo not drawn) [TR-FTO-48]							IC50 [1, 6]: 2 µM; IC50 [2, 7]: 2.6 µM; elogD [3]: 1.34
COc1ccc(CNc2ccc(CNC3CC3)cn2)cc1 [TR-YTH-01]		164 ± 21	164 ± 21	102 ± 15	102 ± 15	102 ± 15	
COc1ccc(CNc2ccc(CNC3CC3)cn2)c(OC)c1 [TR-YTH-02]		229 ± 57	229 ± 57	182 ± 69	182 ± 69	182 ± 69	
COc1ccc(CNc2ccc(CNC3CC3)cn2)cc1OC [TR-YTH-03]		123 ± 6	123 ± 6	85 ± 26	85 ± 26	85 ± 26	
CC(Nc1ccc(CNC2CC2)cn1)c1ccccc1 (stereo not drawn) [TR-YTH-04]		129 ± 6	129 ± 6	100 ± 34	100 ± 34	100 ± 34	
c1cncc(CNc2ccc(CNC3CC3)cn2)c1 [TR-YTH-05]		90 ± 10	90 ± 10	70 ± 12	70 ± 12	70 ± 12	
Fc1ccc(CNc2ccc(CNC3CC3)cn2)cc1F [TR-YTH-06]		285	285 ± 154	395 ± 51	395 ± 51	395 ± 51	
FC(F)(F)c1ccc(CNc2ccc(CNC3CC3)cn2)cc1 [TR-YTH-07]		162 ± 30	162 ± 30	77 ± 18	77 ± 18	77 ± 18	
Fc1ccc(CNc2ccc(CNC3CC3)cn2)cc1 [TR-YTH-08]		880 ± 194	880 ± 194				
Fc1cccc(F)c1CNc1ccc(CNC2CC2)cn1 [TR-YTH-09]		281 ± 9	281 ± 9	172 ± 49	172 ± 49	172 ± 49	
CN(Cc1ccc(C(F)(F)F)cc1)c1ccc(CNC2CC2)cn1 [TR-YTH-10]		615 ± 107	615 ± 107	106 ± 26	106 ± 26	106 ± 26	
Cc1ccc(Nc2ccc(CNC3CC3)cn2)cc1C [TR-YTH-12]		1420 ± 375	1420 ± 375	850 ± 115	850 ± 115	850 ± 115	
Fc1ccnc(Nc2ccc(CNC3CC3)cn2)c1 [TR-YTH-15]		236 ± 51	236 ± 51	145 ± 33	145 ± 33	145 ± 33	
COc1ccc(CNc2ccc(CN(C)C)cn2)cc1 [TR-YTH-16]		214 ± 50	214 ± 50	179 ± 36	179 ± 36	179 ± 36	
CC(Nc1ccc(CN(C)C)cn1)c1ccccc1 (stereo not drawn) [TR-YTH-18]		209 ± 27	209 ± 27	95 ± 13	95 ± 13	95 ± 13	
CN(C)Cc1ccc(NCc2ccc(F)cc2)nc1 [TR-YTH-19]		391 ± 66	391 ± 66	107 ± 19	107 ± 19	107 ± 19	
